Patent US9180217B2, “Sterilization system and device” (priority 2004, dated 2015)
“Also recorded” adds a separate entry of the source.

Columns and labels:
Format in all cases: cell-based
[1] = test system: spores (Biological Indicator manufactured by Raven); test: Humidity effects on spores (Raven Biological Indicator in Tyvek sachets, 300 ml glass vessels); conditions: 5% nitrogen oxide, Diluent Air
Description: This Example illustrates the effects of humidity on the sterilization of spores using both NO and NO2/N2O4 as sterilizing gases. Tests are conducted in 300 ml glass vessels.
The vessels are allowed to stand for 30 minutes, Two Tyvek sachets, each containing a Biological Indicator manufactured by Raven (product number 3367771 3-6100ST) are placed in each vessel. The vessels are purged as follows: The vessel is evacuated to 8″Hg absolute. The Vessel is re-filled with air to atmospheric pressure. Evacuation/filling is repeated two more times. The vessel is evacuated to 8″Hg absolute. Sterilizing gases are introduced into the vessel. Compressed air (9% Relative Humidity) is added until the vessel reaches atmospheric pressure. The sachets are allowed to remain in the sterilizing environments for either five or ten 10 minutes before being removed and the BI is cultured in 4 milliliters of Tryptic Soy Broth for 14 days at 55-60° C.

[2] = test system: bacillus stearothemophilus spores; test: Spore studies in NO and NO2 (BI disks in TYVEK pouches, glass vessel); conditions: 5% in Air with Humidity Chip; Exp Time 10 min
Description: The experiments are conducted in glass vessels in which gases can be metered in exact amounts. The tests were conducted using biological indicators made of stainless steel disks inoculated with 10^6 bacillus stearothemophilus spores. The BI disks are heat-sealed in individual TYVEK sterilization pouches and placed in a glass vessel. The vessel is filled with various mixtures of gases following specific protocols for the order and timing of gas introduction.
In one protocol, the glass vessel is evacuated to 3″ Hg absolute. Either NO or NO2, as the sterilant gas, is added in an amount that corresponds to a 5% concentration (by volume) when the vessel is completely filled with sterilant gas and diluent gas. After 5 minutes, either air or nitrogen was added to the vessel until atmospheric pressure is reached. The BI is exposed to the air or nitrogen for 10 minutes. Thereafter, the BIs, in their pouches, are removed from the vessel and taken to a microbiological hood. The biological indicators are removed from the pouches and placed in tubes with sterile tryptic soy broth, incubated at from about 55 to about 60° C., and monitored for growth.

cocktail of bacteria = test: Humidity effects on live bacteria, sealed and unsealed dry samples; conditions: 15 min Sterilization cycle, 1 atmosphere
Source text: This Example tests several humidifying paradigms and the ability to sterilize through a gas sterilization seal pouch. A cocktail of bacteria is used, grown to about 10^8 CFU/ml and mixed in equal volume. Stainless steel strips are dipped, allowed to dry, and subject to one of three methods: A, B and C. Method A samples are wrapped in a moist Kimwipe. Method B samples are left dry. Method C samples are dried and sealed in a V. Mueller™ Dual Peel Seal Pouch, which is designed for gas and autoclave sterilizations. Samples from methods B and C are placed in the sterilization chamber with a moist Kimwipe. Placement in the chamber is done so as to insure maximal separation of the Kimwipe and the sample(s). The chamber is re-sealed carefully so as not to disturb the positioning of the samples relative to the Kimwipe. Each sample is exposed to a 15 minute sterilization cycle at 1 atmosphere, removed under sterile conditions, and the samples are placed in BHI media as described above. Experimental samples are exposed to NO gas while control samples are handled identically, except that the chamber is gassed with nitrogen. All controls reached greater than 10^6 total CFU/ml in 24 hrs as determined by ABS595 standardization curves.

[3] = test system: sporulated B. subtilis var. niger; test: Sterilization of contaminated stainless steel strips with varying quantities of delivered NO; conditions: 5%, 2.5% and 1% NO, five minutes, culture in LB 48 hours then plating
Source text: A blood storage container (Nexell, Irvine, Calif.; Lifecell PL732 plastic tissue culture flask) is used as the sterilization chamber. Strips of stainless steel are dipped in 10^6 CFU/ml sporulated B. subtilis var. niger (as determined by ABS595 standardization curves). The strips are allowed to air dry, placed in the sterilization chamber, and then the sterilization chamber is heat sealed. The sterilization chamber is evacuated using a syringe and controlling air flow with the sterilization chamber valves. A known quantity of air is added to the vessel using a graduated syringe.
An NO-generating donor compound is placed in a 7 cc gas generation chamber. The gas generation chamber is attached to the storage container through luer lock connectors. The liquid activator, 3.0N HCl is added to the gas generation chamber and the generated gas is allowed to flow into the sterilization chamber. After a brief generation period, the gas is sealed in the sterilization chamber using a compression valve.
Varying quantities of NO gas, namely 10%, 5%, 2.5% and 1% NO, are tested for their efficacy in the sterilization chamber. The quantity (%) of NO gas generated and added to the sterilization chamber is calculated from the number of moles of NO required to be generated to result in the desired percentage of NO. […]

## [N]=O [NO, nitric oxide]
[1]; Exposure 5 Minutes, Dry
  Spore Condition in 14 Days: Alive
[1]; Exposure 5 Minutes, Humid
  Spore Condition in 14 Days: Dead
[1]; Exposure 10 Minutes, Dry
  Spore Condition in 14 Days: Alive
[1]; Exposure 10 Minutes, Humid
  Spore Condition in 14 Days: Dead
[2]
  spore condition (Dead/Live): Dead
Cocktail of bacteria; Method A, sample wrapped in Moist Kimwipe
  trials Killed: Killed
Cocktail of bacteria; Method B, Dry sample
  trials Killed: sterilized dry samples; also recorded: Killed
Cocktail of bacteria; Method C, Dry, Sealed in Dual Peel Seal Pouch
  trials Killed: Killed
[3]
  killing 10^6 CFU/ml sporulated B. subtilis var. niger: effective at killing
